Source: US20250205344A1, “2,4-DIOXOTETRAHYDROPYRIMIDINYL DERATIVES AS DEGRONS IN PROTACS” (GLAXOSMITHKLINE INTELLECTUAL PROPERTY DEVELOPMENT LIMITED, priority 2022, published 2025)
Structures can show the parent of a compound that is named as a salt.

Biological target: T1, Androgen Receptor (Homo sapiens, UniProt P10275, T878A)
T1 construct: the AR gene was modified, using CRISPR/Cas9 editing, so the expressed AR protein included an 11 amino acid HiBiT tag; endogenous in cells; host or cells: clonal LnCaP-derived line, AR gene edited by CRISPR/Cas9
T1 sequence (P10275 whole entry T878A): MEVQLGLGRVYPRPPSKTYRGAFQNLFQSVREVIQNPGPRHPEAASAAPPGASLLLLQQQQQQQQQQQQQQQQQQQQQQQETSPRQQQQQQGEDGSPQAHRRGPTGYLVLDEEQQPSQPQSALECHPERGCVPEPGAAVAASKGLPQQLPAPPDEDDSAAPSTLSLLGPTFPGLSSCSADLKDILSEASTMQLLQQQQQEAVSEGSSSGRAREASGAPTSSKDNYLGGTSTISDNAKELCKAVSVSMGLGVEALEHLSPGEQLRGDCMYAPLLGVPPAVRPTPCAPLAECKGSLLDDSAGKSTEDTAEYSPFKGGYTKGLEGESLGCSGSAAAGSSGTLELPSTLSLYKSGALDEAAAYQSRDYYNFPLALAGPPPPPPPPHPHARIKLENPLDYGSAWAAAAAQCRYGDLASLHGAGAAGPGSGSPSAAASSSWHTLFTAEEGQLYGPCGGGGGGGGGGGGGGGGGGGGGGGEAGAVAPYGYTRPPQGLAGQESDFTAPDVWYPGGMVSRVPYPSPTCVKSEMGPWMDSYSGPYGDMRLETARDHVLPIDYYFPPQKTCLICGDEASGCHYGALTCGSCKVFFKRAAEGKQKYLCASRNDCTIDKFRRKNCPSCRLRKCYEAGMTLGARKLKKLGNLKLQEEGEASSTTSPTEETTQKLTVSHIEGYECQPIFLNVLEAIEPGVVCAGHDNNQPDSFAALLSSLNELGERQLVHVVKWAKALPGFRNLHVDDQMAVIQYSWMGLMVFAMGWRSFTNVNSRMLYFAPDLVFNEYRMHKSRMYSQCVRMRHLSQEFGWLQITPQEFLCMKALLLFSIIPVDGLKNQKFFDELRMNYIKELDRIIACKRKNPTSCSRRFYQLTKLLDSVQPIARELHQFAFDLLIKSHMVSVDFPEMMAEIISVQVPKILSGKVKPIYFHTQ
T1 sequence (Q96SW2 whole entry partner): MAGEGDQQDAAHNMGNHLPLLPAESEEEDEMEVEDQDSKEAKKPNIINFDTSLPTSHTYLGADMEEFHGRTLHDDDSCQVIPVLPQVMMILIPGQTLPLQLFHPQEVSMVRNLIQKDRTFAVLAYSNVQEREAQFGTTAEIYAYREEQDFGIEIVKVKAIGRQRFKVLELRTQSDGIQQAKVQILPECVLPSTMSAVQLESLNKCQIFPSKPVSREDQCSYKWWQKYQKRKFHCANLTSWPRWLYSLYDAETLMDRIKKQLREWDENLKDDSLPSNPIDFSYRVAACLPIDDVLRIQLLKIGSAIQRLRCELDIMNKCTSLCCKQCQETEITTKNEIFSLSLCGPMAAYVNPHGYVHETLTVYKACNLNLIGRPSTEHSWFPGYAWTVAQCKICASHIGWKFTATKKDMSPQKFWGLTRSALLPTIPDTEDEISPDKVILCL
T1 sequence (Q16531 whole entry partner): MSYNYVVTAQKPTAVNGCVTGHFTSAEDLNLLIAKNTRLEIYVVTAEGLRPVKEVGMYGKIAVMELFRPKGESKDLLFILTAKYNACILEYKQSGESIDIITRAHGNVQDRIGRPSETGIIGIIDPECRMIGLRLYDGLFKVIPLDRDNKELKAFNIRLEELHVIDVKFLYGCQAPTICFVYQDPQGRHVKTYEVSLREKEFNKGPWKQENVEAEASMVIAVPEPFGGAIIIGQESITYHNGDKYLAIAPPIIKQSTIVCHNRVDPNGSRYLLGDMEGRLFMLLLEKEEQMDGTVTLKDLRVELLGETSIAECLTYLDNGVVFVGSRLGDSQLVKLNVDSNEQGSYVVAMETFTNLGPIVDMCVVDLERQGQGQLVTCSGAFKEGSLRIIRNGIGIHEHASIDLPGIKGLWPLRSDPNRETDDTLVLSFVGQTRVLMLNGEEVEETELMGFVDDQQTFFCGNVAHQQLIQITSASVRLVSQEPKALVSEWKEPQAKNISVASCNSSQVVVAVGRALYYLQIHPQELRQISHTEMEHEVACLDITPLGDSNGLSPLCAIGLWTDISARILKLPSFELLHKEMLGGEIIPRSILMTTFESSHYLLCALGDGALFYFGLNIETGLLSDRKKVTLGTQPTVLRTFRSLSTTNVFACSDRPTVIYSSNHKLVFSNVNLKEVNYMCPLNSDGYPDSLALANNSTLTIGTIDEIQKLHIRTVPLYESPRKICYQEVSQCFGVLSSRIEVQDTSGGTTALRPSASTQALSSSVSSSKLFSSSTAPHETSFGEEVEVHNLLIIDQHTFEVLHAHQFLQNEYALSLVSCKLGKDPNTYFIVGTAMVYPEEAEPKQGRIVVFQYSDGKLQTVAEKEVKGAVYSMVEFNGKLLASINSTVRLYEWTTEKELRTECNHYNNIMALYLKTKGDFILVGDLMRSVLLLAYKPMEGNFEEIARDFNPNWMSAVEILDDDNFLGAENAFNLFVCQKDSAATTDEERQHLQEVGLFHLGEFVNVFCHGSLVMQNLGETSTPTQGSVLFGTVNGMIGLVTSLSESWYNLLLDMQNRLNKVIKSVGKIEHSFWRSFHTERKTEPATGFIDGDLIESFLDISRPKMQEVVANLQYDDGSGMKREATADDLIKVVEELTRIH
Test: Androgen Receptor Degradation Assay (Nano-Glo HiBiT)
Assay type: cell-based
Conditions: 18 h, HiBiT-tagged AR in human LnCaP cells; for Dmax: LNCaP, read-out: mean asymptote max
Summary of the method: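 LnCaP cells with CRISPR-knocked-in N-terminal HiBiT-tagged AR (10,000/well) treated 18 h at 37 °C with PROTACs over 11 threefold concentrations; lytic HiBiT luminescence normalised to DMSO (0%) and cell-free (100%) controls. Relative DC50 = 4-parameter fit inflection; absolute DC50 = 50% degradation interpolation; Dmax = maximum observed degradation.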

For `C[C@@H]1CN(C(=O)Nc2ccc(N3CCC(CCN4CCC(n5ncc6c(N7CCC(=O)NC7=O)cccc65)CC4)CC3)nc2)[C@@H](C)CN1c1ccc(C#N)c(Cl)c1` [EAR132, (2S,5R)-4-(3-Chloro-4-cyanophenyl)-N-(6-(4-(2-(4-(4-(2,4-dioxotetrahydropyrimidin-1(2H)-yl)-1H-indazol-1-yl)piperidin-1-yl)ethyl)piperidin-1-yl)pyridin-3-yl)-2,5-dimethylpiperazine-1-carboxamide, formic acid salt], the Dmax was ≥ 50%.
With `C[C@@H]1CN(C(=O)Nc2ccc(N3CCC(CCN4CCC(n5ncc6c(N7CCC(=O)NC7=O)cncc65)CC4)CC3)nc2)[C@@H](C)CN1c1ccc(C#N)c(Cl)c1.O=CO` [EAR133, (2S,5R)-4-(3-Chloro-4-cyanophenyl)-N-(6-(4-(2-(4-(4-(2,4-dioxotetrahydropyrimidin-1(2H)-yl)-1H-pyrazolo[3,4-c]pyridin-1-yl)piperidin-1-yl)ethyl)piperidin-1-yl)pyridin-3-yl)-2,5-dimethylpiperazine-1-carboxamide, formic acid salt] the “mean relative pDC50” value was 5.94 and the Dmax was ≥ 50%.
`N#Cc1ccc(O[C@H]2CC[C@H](NC(=O)c3ccc(N4CCN(CC(=O)N5CCC(n6ccc7c(N8CCC(=O)NC8=O)cccc76)CC5)CC4)nn3)CC2)cc1Cl` [EAR134, N-((1r,4r)-4-(3-Chloro-4-cyanophenoxy)cyclohexyl)-6-(4-(2-(4-(4-(2,4-dioxotetrahydropyrimidin-1(2H)-yl)-1H-indol-1-yl)piperidin-1-yl)-2-oxoethyl)piperazin-1-yl)pyridazine-3-carboxamide] was tested, and the Dmax was ≥ 50%.
With `CC(C1CCN(c2ccc(C(=O)N[C@H]3CC[C@H](Oc4ccc(C#N)c(Cl)c4)CC3)nn2)CC1)N1CCC(n2ccc3c(N4CCC(=O)NC4=O)cncc32)CC1` (some centres unmarked) [EAR135, N-((1r,4r)-4-(3-Chloro-4-cyanophenoxy)cyclohexyl)-6-(4-(1-(4-(4-(2,4-dioxotetrahydropyrimidin-1(2H)-yl)-1H-pyrrolo[2,3-c]pyridin-1-yl)piperidin-1-yl)ethyl)piperidin-1-yl)pyridazine-3-carboxamide] the Dmax was ≥ 50%.
In the case of `C[C@@H]1CN(C(=O)Nc2ccc(N3CCC(CN4CCC(n5ncc6c(N7CCC(=O)NC7=O)cccc65)CC4)CC3)nc2)[C@@H](C)CN1c1ccc(C#N)c(Cl)c1` [EAR138, (2S,5R)-4-(3-Chloro-4-cyanophenyl)-N-(6-(4-((4-(4-(2,4-dioxotetrahydropyrimidin-1(2H)-yl)-1H-indazol-1-yl)piperidin-1-yl)methyl)piperidin-1-yl)pyridin-3-yl)-2,5-dimethylpiperazine-1-carboxamide, formic acid salt], the Dmax is reported as ≥ 50%.
With `N#Cc1ccc(O[C@H]2CC[C@H](NC(=O)c3ccc(N4CCC(CN5CCC(n6ncc7c(N8CCC(=O)NC8=O)c(F)ccc76)CC5)CC4)nn3)CC2)cc1Cl` [EAR140, N-((1r,4r)-4-(3-Chloro-4-cyanophenoxy)cyclohexyl)-6-(4-((4-(4-(2,4-dioxotetrahydropyrimidin-1(2H)-yl)-5-fluoro-1H-indazol-1-yl)piperidin-1-yl)methyl)piperidin-1-yl)pyridazine-3-carboxamide, hydrochloride] the Dmax was ≥ 50%.
For `N#Cc1ccc(O[C@H]2CC[C@H](NC(=O)c3ccc(N4CCC(CN5CCC(n6ccc7c(-n8ccc(=O)[nH]c8=O)cccc76)CC5)CC4)nn3)CC2)cc1Cl` [EAR141, N-((1r,4r)-4-(3-Chloro-4-cyanophenoxy)cyclohexyl)-6-(4-((4-(4-(2,4-dioxo-3,4-dihydropyrimidin-1(2H)-yl)-1H-indol-1-yl)piperidin-1-yl)methyl)piperidin-1-yl)pyridazine-3-carboxamide, hydrochloride], the Dmax was ≥ 50%.
In the case of `N#Cc1ccc(O[C@H]2CC[C@H](NC(=O)c3ccc(N4CCC[C@H](CN5CCC(n6ccc7c(N8CCC(=O)NC8=O)cccc76)CC5)C4)nn3)CC2)cc1Cl` [EAR142, N-((1r,4R)-4-(3-chloro-4-cyanophenoxy)cyclohexyl)-6-((R)-3-((4-(4-(2,4-dioxotetrahydropyrimidin-1(2H)-yl)-1H-indol-1-yl)piperidin-1-yl)methyl)piperidin-1-yl)pyridazine-3-carboxamide], the Dmax is reported as ≥ 50%.
`N#Cc1ccc(O[C@H]2CC[C@H](NC(=O)c3ccc(N4CCC[C@@H](CN5CCC(n6ccc7c(N8CCC(=O)NC8=O)cccc76)CC5)C4)nn3)CC2)cc1Cl` [EAR143, N-((1r,4R)-4-(3-chloro-4-cyanophenoxy)cyclohexyl)-6-((S)-3-((4-(4-(2,4-dioxotetrahydropyrimidin-1(2H)-yl)-1H-indol-1-yl)piperidin-1-yl)methyl)piperidin-1-yl)pyridazine-3-carboxamide] was tested, and the Dmax was ≥ 50%.
With `N#Cc1ccc(O[C@H]2CC[C@H](NC(=O)c3ccc(N4CCC(CN5CC[C@@H](n6ccc7c(N8CCC(=O)NC8=O)cccc76)[C@H](F)C5)CC4)nn3)CC2)cc1Cl` [EAR144, N-((1r,4r)-4-(3-Chloro-4-cyanophenoxy)cyclohexyl)-6-(4-(((3R,4R)-4-(4-(2,4-dioxotetrahydropyrimidin-1(2H)-yl)-1H-indol-1-yl)-3-fluoropiperidin-1-yl)methyl)piperidin-1-yl)pyridazine-3-carboxamide, hydrochloride] the Dmax was ≥ 50%.
With `N#Cc1ccc(O[C@H]2CC[C@H](NC(=O)c3ccc(N4CCC(CN5CC[C@H](n6ccc7c(N8CCC(=O)NC8=O)cccc76)[C@@H](F)C5)CC4)nn3)CC2)cc1Cl` [EAR145, N-((1r,4r)-4-(3-Chloro-4-cyanophenoxy)cyclohexyl)-6-(4-(((3S,4S)-4-(4-(2,4-dioxotetrahydropyrimidin-1(2H)-yl)-1H-indol-1-yl)-3-fluoropiperidin-1-yl)methyl)piperidin-1-yl)pyridazine-3-carboxamide, hydrochloride] the Dmax was ≥ 50%.
For `C[C@@H]1CN(c2ccc(C#N)c(Cl)c2)[C@@H](C)CN1C(=O)c1ccc(N2CCC(CN3CCC(n4ncc5c(N6CCC(=O)NC6=O)cncc54)CC3)CC2)nn1` [EAR146, 2-Chloro-4-((2S,5R)-4-(6-(4-((4-(4-(2,4-dioxotetrahydropyrimidin-1(2H)-yl)-1H-pyrazolo[3,4-c]pyridin-1-yl)piperidin-1-yl)methyl)piperidin-1-yl)pyridazine-3-carbonyl)-2,5-dimethylpiperazin-1-yl)benzonitrile], the Dmax was ≥ 50%.
`C[C@@H]1CN(c2ccc(C#N)c(Cl)c2)[C@@H](C)CN1C(=O)c1cnc(N2CCC(CN3CCC(n4ccc5c(N6CCC(=O)NC6=O)cncc54)CC3)CC2)cn1` [EAR147, 2-Chloro-4-((2S,5R)-4-(5-(4-((4-(4-(2,4-dioxotetrahydropyrimidin-1(2H)-yl)-1H-pyrrolo[2,3-c]pyridin-1-yl)piperidin-1-yl)methyl)piperidin-1-yl)pyrazine-2-carbonyl)-2,5-dimethylpiperazin-1-yl)benzonitrile] was tested, and the Dmax was ≥ 50%.
With `N#Cc1ccc(O[C@H]2CC[C@H](NC(=O)c3ccc(N4CCC(CN5CCC(n6ccc7c(N8CCC(=O)NC8=O)nccc76)CC5)CC4)nn3)CC2)cc1Cl` [EAR148, N-((1r,4r)-4-(3-Chloro-4-cyanophenoxy)cyclohexyl)-6-(4-((4-(4-(2,4-dioxotetrahydropyrimidin-1(2H)-yl)-1H-pyrrolo[3,2-c]pyridin-1-yl)piperidin-1-yl)methyl)piperidin-1-yl)pyridazine-3-carboxamide] the Dmax was ≥ 50%.
In the case of `N#Cc1ccc(O[C@H]2CC[C@H](NC(=O)c3ccc(N4CCC(CN5CCC(n6ccc7c(N8CCC(=O)NC8=O)ccnc76)CC5)CC4)nn3)CC2)cc1Cl` [EAR149, N-((1r,4r)-4-(3-Chloro-4-cyanophenoxy)cyclohexyl)-6-(4-((4-(4-(2,4-dioxotetrahydropyrimidin-1(2H)-yl)-1H-pyrrolo[2,3-b]pyridin-1-yl)piperidin-1-yl)methyl)piperidin-1-yl)pyridazine-3-carboxamide], the Dmax is reported as ≥ 50%.
For `C[C@@H]1CN(c2ccc(C#N)c(Cl)c2)[C@@H](C)CN1C(=O)c1cnc(N2CCC(CN3CCC(n4ncc5c(N6CCC(=O)NC6=O)cncc54)CC3)CC2)cn1` [EAR150, 2-Chloro-4-((2S,5R)-4-(5-(4-((4-(4-(2,4-dioxotetrahydropyrimidin-1(2H)-yl)-1H-pyrazolo[3,4-c]pyridin-1-yl)piperidin-1-yl)methyl)piperidin-1-yl)pyrazine-2-carbonyl)-2,5-dimethylpiperazin-1-yl)benzonitrile], the Dmax was ≥ 50%.
For `CN(CCCN1CCC(n2ncc3c(N4CCC(=O)NC4=O)cccc32)CC1)c1ccc(C(=O)N[C@H]2CC[C@H](Oc3ccc(C#N)c(Cl)c3)CC2)nn1` [EAR151, N-((1r,4r)-4-(3-Chloro-4-cyanophenoxy)cyclohexyl)-6-((3-(4-(4-(2,4-dioxotetrahydropyrimidin-1(2H)-yl)-1H-indazol-1-yl)piperidin-1-yl)propyl)(methyl)amino)pyridazine-3-carboxamide, formic acid salt], the Dmax was ≥ 50%.
For `N#Cc1ccc(O[C@H]2CC[C@H](NC(=O)c3ccc(N4CCC(CN5CCC(n6ncc7c(N8CCC(=O)NC8=O)cccc76)CC5)C4)nn3)CC2)cc1Cl` (some centres unmarked) [EAR152, N-((1r,4r)-4-(3-Chloro-4-cyanophenoxy)cyclohexyl)-6-(3-((4-(4-(2,4-dioxotetrahydropyrimidin-1(2H)-yl)-1H-indazol-1-yl)piperidin-1-yl)methyl)pyrrolidin-1-yl)pyridazine-3-carboxamide, formic acid salt], the Dmax was ≥ 50%.
For `N#Cc1ccc(O[C@H]2CC[C@H](NC(=O)c3ccc(N4CCC[C@@H](CN5CCC(n6ncc7c(N8CCC(=O)NC8=O)cccc76)CC5)C4)nn3)CC2)cc1Cl` [EAR153, N-((1r,4S)-4-(3-Chloro-4-cyanophenoxy)cyclohexyl)-6-((S)-3-((4-(4-(2,4-dioxotetrahydropyrimidin-1(2H)-yl)-1H-indazol-1-yl)piperidin-1-yl)methyl)piperidin-1-yl)pyridazine-3-carboxamide, formic acid salt], the Dmax was ≥ 50%.
